From US20060270629A1, “Methanocarba cycloalkyl nucleoside analogues” (Govt of the U.S.A., represented by the Secretary, Dept of …, priority 2000, published 2006)
“And” between values parts separate entries of the source, which are not always exact repeats. Equal values may be shown once. Read-outs that look alike come from different tables or passages of the source.

How the values were obtained:
[1] = target: T1, human A3 receptors (Homo sapiens, UniProt P0DMS8); assay: A3 adenosine receptor binding using [125I]AB-MECA, transfected CHO cell membranes; details: for Ki: human A3 receptors, read-out: K1 (nM), hA3; for A1/A3: ratio of Ki at rat A1 to Ki at A3 (human, or rat where marked (r))
T1 sequence (P0DMS8 1-318): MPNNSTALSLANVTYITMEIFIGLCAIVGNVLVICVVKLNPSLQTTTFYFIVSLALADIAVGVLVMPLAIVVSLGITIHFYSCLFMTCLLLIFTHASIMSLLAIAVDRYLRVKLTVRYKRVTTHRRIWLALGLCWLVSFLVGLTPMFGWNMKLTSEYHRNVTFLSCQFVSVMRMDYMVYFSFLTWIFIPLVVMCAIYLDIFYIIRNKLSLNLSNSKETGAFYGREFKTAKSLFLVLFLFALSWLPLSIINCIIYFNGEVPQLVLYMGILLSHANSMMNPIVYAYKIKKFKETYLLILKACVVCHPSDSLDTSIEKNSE

[2] = target: T2, cloned hA3AR (Homo sapiens, UniProt P0DMS8); assay: Stimulation of [35S]GTPγS binding, CHO cell membranes expressing cloned hA3AR; details: for cloned hA3AR % Maximal Stimulation / cloned hA3AR % Stimulation at 10 μM / agonist efficacy at human A3 receptors: [35S]GTPγS binding; for EC50: stimulation of basal [35S]GTPγS binding, n = 3
T2 sequence (P0DMS8 1-318): T1 sequence (P0DMS8 1-318)

[3] = target: T3, rat A1 receptors (Rattus norvegicus, UniProt P25099); assay: Radioligand binding at rat A1 adenosine receptors; details: for Ki: rat A1 receptors, read-out: K1 (nM), rA1
T3 sequence (P25099 1-326): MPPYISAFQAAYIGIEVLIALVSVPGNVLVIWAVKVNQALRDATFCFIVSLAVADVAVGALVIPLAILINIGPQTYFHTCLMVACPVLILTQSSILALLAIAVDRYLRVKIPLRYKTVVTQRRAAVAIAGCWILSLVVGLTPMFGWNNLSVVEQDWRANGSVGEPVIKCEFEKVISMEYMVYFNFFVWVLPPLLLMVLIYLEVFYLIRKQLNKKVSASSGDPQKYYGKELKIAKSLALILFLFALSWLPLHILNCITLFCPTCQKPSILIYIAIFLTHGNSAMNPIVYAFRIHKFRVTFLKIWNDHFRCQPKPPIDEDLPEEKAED

[4] = target: T4, cloned hA1AR (Homo sapiens, UniProt P30542); assay: Stimulation of [35S]GTPγS binding, CHO cell membranes expressing cloned hA1AR; details: for Emax: read-out: cloned hA1AR % Maximal Stimulation
T4 sequence (P30542 1-326): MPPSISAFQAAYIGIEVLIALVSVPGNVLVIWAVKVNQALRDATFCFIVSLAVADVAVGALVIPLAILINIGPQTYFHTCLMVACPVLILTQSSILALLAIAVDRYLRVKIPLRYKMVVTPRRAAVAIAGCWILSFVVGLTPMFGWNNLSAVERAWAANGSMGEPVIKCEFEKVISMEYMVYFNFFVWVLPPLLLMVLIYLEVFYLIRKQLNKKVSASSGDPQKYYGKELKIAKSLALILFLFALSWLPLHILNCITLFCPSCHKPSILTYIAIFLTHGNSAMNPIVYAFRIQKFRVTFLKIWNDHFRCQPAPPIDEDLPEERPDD

[5] = target: rat A2A receptors (Rattus norvegicus, UniProt P30543); assay: Radioligand binding at rat A2A adenosine receptors; details: for Ki: read-out: K1 (nM), rA2A
[6] = target: T5, rA1AR (Rattus norvegicus, UniProt P25099); assay: Stimulation of [35S]GTPγS binding, rat cerebral cortical membranes containing the A1AR; assay type: biochemical; details: for Emax: read-out: rA1AR % Maximal Stimulation
T5 construct: in rat cerebral cortical membranes containing the A1AR; from tissue; host or cells: rat cerebral cortical membranes
T5 sequence (P25099 1-326): T3 sequence (P25099 1-326)

[7] = target: T6, human A2B receptor (Homo sapiens, UniProt P29275); assay: Radioligand binding at human A2B receptor using [3H]ZM 241,385; details: for Ki: read-out: K1 (nM), hA2B
T6 sequence (P29275 1-332): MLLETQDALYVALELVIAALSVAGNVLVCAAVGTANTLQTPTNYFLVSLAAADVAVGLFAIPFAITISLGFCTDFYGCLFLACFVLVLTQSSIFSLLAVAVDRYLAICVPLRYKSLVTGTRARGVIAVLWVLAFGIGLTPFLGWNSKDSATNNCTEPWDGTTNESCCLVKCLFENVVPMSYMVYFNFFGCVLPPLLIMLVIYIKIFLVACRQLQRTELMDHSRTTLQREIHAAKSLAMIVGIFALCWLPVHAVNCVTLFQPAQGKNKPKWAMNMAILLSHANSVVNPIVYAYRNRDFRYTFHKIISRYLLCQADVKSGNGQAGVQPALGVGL

[8] = target: T7, A3 receptors (Rattus norvegicus, UniProt P28647); assay: Radioligand binding at rat A3 adenosine receptors, values marked (r); details: read-out: K1 (nM), A3 (r)
T7 sequence (P28647 1-320): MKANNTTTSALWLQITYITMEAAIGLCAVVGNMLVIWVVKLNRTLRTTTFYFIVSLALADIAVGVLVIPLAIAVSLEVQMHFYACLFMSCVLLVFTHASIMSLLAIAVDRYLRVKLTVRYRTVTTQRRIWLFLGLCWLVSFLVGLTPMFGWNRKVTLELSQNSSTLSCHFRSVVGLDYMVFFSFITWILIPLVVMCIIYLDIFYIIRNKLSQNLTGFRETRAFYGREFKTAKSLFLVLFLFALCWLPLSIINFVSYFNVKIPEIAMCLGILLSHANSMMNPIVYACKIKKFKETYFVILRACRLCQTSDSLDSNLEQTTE

[9] = read-out: cloned hA1AR EC50, stimulation of basal [35S]GTPγS binding, n = 3

Sequence of rat A2A receptors (P30543 whole entry): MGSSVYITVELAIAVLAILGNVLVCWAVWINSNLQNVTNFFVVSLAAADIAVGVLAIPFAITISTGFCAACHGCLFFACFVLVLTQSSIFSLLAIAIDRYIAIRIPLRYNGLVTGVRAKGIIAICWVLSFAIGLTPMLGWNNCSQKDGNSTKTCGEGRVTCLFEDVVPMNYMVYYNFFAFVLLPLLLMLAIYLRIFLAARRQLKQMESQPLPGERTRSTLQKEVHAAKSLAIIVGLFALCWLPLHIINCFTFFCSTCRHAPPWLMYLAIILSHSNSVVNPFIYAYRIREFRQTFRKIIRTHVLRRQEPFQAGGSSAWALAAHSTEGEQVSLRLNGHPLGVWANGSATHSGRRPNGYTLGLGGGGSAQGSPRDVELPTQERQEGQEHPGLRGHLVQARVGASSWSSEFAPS

Emax [4]	Compound	Ki [1]	cloned hA3AR % Maximal Stimulation [2]	A1/A3 [1]	Ki [3]	Ki [5]	EC50 [6]	EC50 [4, 9]	also measured
	OC[C@H]1O[C@@H](n2cnc3c(NC4CCCC4)ncnc32)[C@H](O)[C@@H]1O [Compound 6a, CPA, reference compound]	274 ± 20 nM	100%						EC50 ([2]; read-out: cloned hA3AR EC50): 7980 ± 60 nM
102 ± 1%	OCC12CC1C(n1cnc3c(NC4CCCC4)ncnc31)C(O)C2O [Compound 6c, (1′R,2R,3′R,4′R,1′aR)-2,3-(dihydroxy)-4-(hydroxymethyl)-1-(6-cyclopentylaminopurine-9-yl)bicyclo(3.1.0)hexane)]	170 ± 51 nM		0.030	5.06 ± 0.51 nM	6800 ± 1800 nM	0.1 ± 0.017 µM		cloned hA3AR % Stimulation at 10 μM [2]: 14 ± 2% at 10 μM; EC50 ([2]; cloned hA3AR EC50 (nM)): > 10000 nM; affinity at rat A1 receptors, fold less than for 6a ([3]; versus 6a): 3 fold; EC50 [4]: 0.0215 ± 0.0023 µM; agonist efficacy at human A1 receptors ([4]; [35S]GTPγS binding): full agonist; Emax [6]: 75 ± 6%
	OC[C@H]1C[C@@H](n2cnc3c(NCc4cccc(I)c4)ncnc32)[C@@H](O)[C@@H]1O [Compound 7b, (1′R, 2′R,3′R,4′R)-2,3-(dihydroxy)-4-(hydroxymethyl)-1-(6-(3-idobenzylamino)purine-9-yl)cyclopentane]	1960 ± 370 nM		13	25900 nM			> 10 µM	cloned hA3AR % Stimulation at 10 μM [2]: 15 ± 5% at 10 μM; EC50 ([2]; read-out: cloned hA3AR EC50): > 10000 nM; cloned hA1AR % Stimulation at 10 μM ([4]; [35S]GTPγS binding, at 10 μM): 5 ± 2% at 10 μM; % displacement, rA2A ([5]; at 100 μM): <10% 100 μM
86 ± 2%	OCC12CC1C(n1cnc3c(NCc4cccc(I)c4)ncnc31)C(O)C2O (centres unmarked) [Compound 7c, 4-[6-(3-iodobenzylamino)-purin-9-yl]-1-hydroxymethyl-bicyclo[3.1.0]hexane-2,3-diol]	4.1 nM and 4.13 nM	45.3 ± 6.8%			601 ± 236 nM			Ki [7]: 12100 nM; EC50 ([2]; cloned hA3AR EC50 (nM)): 0.7 ± 0.16 nM; Emax ([2]; read-out: cloned hA3AR % Maximal Stimulation, [35S]GTPγS binding): 45%; EC50 [4]: 0.218 ± 0.018 µM
	OCC1C(O)C(O)C2(n3cnc4c(NC5CCCC5)nc(Cl)nc43)CC12 (centres unmarked) [Compound 8c]	466 ± 58 nM		0.019	8.76 ± 0.81 nM	3390 ± 520 nM	0.145 ± 0.035 µM	0.0312 ± 0.0033 µM	% displacement, hA2B ([7]; at 100 μM): 27 ± 7% at 100 μM; selectivity in binding to rat A1 vs. human A3 receptors ([3]; binding): 53 fold; cloned hA1AR % Maximal Stimulation ([4]; [35S]GTPγS binding): 97 ± 1%; rA1AR % Maximal Stimulation [6]: 96 ± 2%
	OC[C@H]1O[C@@H](n2cnc3c(NCc4cccc(I)c4)nc(Cl)nc32)[C@H](O)[C@@H]1O [Compound 9a, 2-chloro-N-6-(3iodobenzyl)adenosine]								Ki [8]: 1.41 ± 0.17 nM
	OCC1C(O)C(O)C2(n3cnc4c(NCc5cccc(I)c5)nc(Cl)nc43)CC12 (centres unmarked) [Compound 9c]		22%		141 nM	732 nM	0.684 ± 0.075 µM	0.142 ± 0.024 µM	Ki [7]: 41000 nM; agonist efficacy at human A3 receptors [2]: partial A3 receptor agonists; cloned hA1AR % Maximal Stimulation ([4]; [35S]GTPγS binding): 91 ± 1%; rA1AR % Maximal Stimulation [6]: 48 ± 3%

Compound	Emax [4]	Ki [1]	cloned hA3AR % Maximal Stimulation [2]	A1/A3 [1]	Ki [3]	Ki [5]	EC50 [6]	EC50 [4, 9]	also measured
OC[C@H]1O[C@@H](n2cnc3c(NCc4cccc(I)c4)ncnc32)[C@H](O)[C@@H]1O [Compound 7a, reference compound]	91 ± 1%		100%					0.0431 ± 0.0104 µM	agonist efficacy at human A3 receptors [2]: full A3 agonists; Emax [6]: 95 ± 4%
